Data reported in US5837728A, “9-cis retinoic acid esters and amides and uses thereof” (priority 1995, dated 1998).
“Also recorded” adds a separate entry of the source. Like-named read-outs stand apart in the source and are kept apart here.

Key:
keratinocytes = settings: in vitro; cited from earlier work
[1] = system: ultraviolet damaged skin of hairless mice; settings: topical tretinoin, several weeks; cited from earlier work
rabbit skin = experiment: Draize test for irritation (rabbit dermal irritation); assay type: in vivo
[2] = system: Human neonatal foreskin keratinocytes; experiment: Growth of human neonatal foreskin keratinocytes (cell number); assay type: cell-based; settings: three days
From the text: Human neonatal foreskin keratinocytes and human neonatal foreskin fibroblasts were isolated and grown in monlayer culture. Culture medium for keratinocytes was Keratincyte Growth Medium (KGM) from Clonetics, Inc., San Diego. Calif. The culture medium for fibroblasts was Dulbecco's Modified Eagle's Medium (DMEM) supplemented with non-essential amino acids and 10% fetal bovine serum. The culture medium was obtained from GIBCO, Grand Island, N.Y. and the FBS was from Hyclone Labs, Inc., Logan, Utah.
Cells at passage 2-4 were plated in wells of a 24 well dish at approximately 5×10^4 cells per well in their respective culture medium. Incubation was at 37° C. with 5% CO2. After the cells attached and spread overnight, they were washed two times in serum-free keratincyte basal medium (KBM) and incubated in 1 ml of KBM or in 1 ml of KGM. Compound IV was added in varying concentrations to the wells. […] The cells were incubated for an additional two days for fibroblasts and three days for keratinocytes, and were then harvested and counted.

[3] = system: epidermal growth factor cell surface receptors; settings: in vitro; cited from earlier work
skin wound of rats = settings: 1% for 3 days before and 0.1% after the wound; cited from earlier work
[4] = system: corneal epithelial wounds; settings: cited from earlier work
photoaged skin = settings: cited from earlier work
skin of rabbits = experiment: Topical assay for primary acute dermal irritation; assay type: in vivo
Experimental: Twelve healthy, young, adult, female New Zealand White rabbits (Orycetolagus cuniculus), are used in the study. […] At the start of the study, the animals are in the weight range between 2.0 and 3.0 kilograms, and are approximately 11 weeks of age. Animals selected for the test are not subjected to any previous experimental procedures, and their skin is free from irritation, trauma and disease.
Six animals are treated in this manner.
The application sites are prepared by clipping the skin of the trunk free of hair approximately 24 hours before application of the dose. One application site on each animal is abraded by making minor incisions through the stratum corneum, but not sufficient to disturb the derma (that is, not sufficiently deep to produce bleeding). The second application site is intact skin.
The dose is applied to a small area (approximately 6 cm^2) of skin and covered with a gauze patch which is held in place with Vetrap bandaging. The patches are applied to one intact site and one abraded site per animal. The test substance is kept in contact with the skin for 24 hours. The skin is not rinsed following the 24 hour exposure period.
Animals are observed for signs of erythma and edema 24 and 72 hours after application of the test material. Observations are scored according to the Draize Scale for Scoring Skin Reactions as in Draize, J. H., Dermal Toxicity, Appraisal of the Safety of Chemicals in Foods, Drugs and Cosmetics Dermal Toxicity, pp. 46-59, Association of Food and Drug Officials of the U.S., Topeka, Kans., 1965. […] Animals are weighed at the beginning and at the end of the observation period.

[5] = system: sun-damaged, wrinkled, aged skin of the face and forearms; experiment: Topical assay for antiaging and antiactinic effects (dermatoheliosis); assay type: in vivo, human (patients)
From the text: Four subjects aged 49 to 73, three females and one male having significant,easily observe, sun-damaged, wrinkled, aged skin of the face and forearms are subjects of a study to determine the effect of topical application of 2-(9-cis-retinoyloxy)-4-methoxyacetophenone in the treatment of dermatoheliosis. The three females had moderately severe sun-damaged skin and wrinkles of the forearms, hands and face. The one person has extremely severe sun damage in these areas as well as multiple actinic keratoses. The four subjects are provided with and applied to their entire faces (omitting the eyelids) and dorsal surface of the right forearm, once daily for 12 to 16 weeks, 0.1% concentration of 2-(9-cis-retinoyloxy)-4-methoxyacetophenone in a hydrophilic cream vehicle. The left forearm of each patient is treated daily with a non-medicated moisturizer of the patients choice.
All subjects are evaluated every 4 weeks through the study for redness, peeling, skin surface texture and wrinkling. Biopsies (using a 4 mm punch) are taken from the dorsal surface of the right upper forearm at the beginning of the study and again from the same area at the end of the study. The biopsies are stained with H & E, Alcian Blue and collagen/elastic stains and compared by a qualified dematopathologist.

[6] = 0.1% retinoic acid hydrophilic cream, 16 weeks
[7] = 0.1% cream, once daily for 12 to 16 weeks

CC1=C(/C=C/C(C)=C/C=C/C(C)=C/C(=O)O)C(C)(C)CCC1 [all-trans-retinoic acid, reference compound]
Effect on keratinocyte proliferation and growth (keratinocytes): capacity to stimulate proliferation of quiescent keratinocytes in vitro
Repair of ultraviolet damaged skin [1]: subepidermal repair zone in the treated mice was significantly wider than that in the untreated control group; also recorded: augmented the repair of ultraviolet damaged tissue in the hairless mouse with new blood vessel formation
Erythema Grade (rabbit skin; dose 0.001%): 0.4
Erythema Grade (rabbit skin; dose 0.01%): 0.8
Erythema Grade (rabbit skin; dose 0.1%): 2.8
ID50, dermal irritation (rabbit skin; rabbit): 0.01%
Number of keratinocytes, KGM ([2]; 0.25 μg/ml): 24.7 ± 1.7 × 10^4 cells
Number of keratinocytes, KMB ([2]; 0.25 μg/ml): 13.7 ± 1.6 × 10^4 cells
Number of keratinocytes, KGM ([2]; 0.5 μg/ml): 17.7 ± 0.8 × 10^4 cells
Number of keratinocytes, KMB ([2]; 0.5 μg/ml): 15.2 ± 0.1 × 10^4 cells
Number of keratinocytes, KMB ([2]; 1.0 μg/ml): 12.3 ± 1.0 × 10^4 cells
Effect on epidermal growth factor activity and receptor binding [3]: increases the mitogenic activity of epidermal growth factor and its binding to its cell surface receptors in vitro
Acceleration of healing compared to control group (skin wound of rats): 18%
Increase in the healing rate ([4]; 0.1% tretinoin three times per day): 21%
Increase in the healing rate ([4]; five times a day): 35%
Effect on sun damaged skin (Weiss study) (photoaged skin; [6]): some positive effects on the surface texture and wrinkling of sun damaged facial skin, and on the histology of the epidermal and stratum corneum layers of dorsal forearm skin
Irritancy (Weiss study) (photoaged skin; [6]): moderately severe irritancy level
Patients who experienced dermatitis (photoaged skin; Weiss et al.): 92%
Improvement of photoaging of the skin (photoaged skin; cream containing 0.1% tretinoin, daily topical): could be improved within a 16-week period
Redness, peeling, stinging, burning and dryness (photoaged skin; topical tretinoin therapy): consistently experienced by nearly all subjects
Subjects with dermatitis severe enough to require topical steroids (photoaged skin; topical tretinoin therapy): Eleven of fifteen subjects
Subjects withdrawn due to severity of dermatitis (photoaged skin; topical tretinoin therapy): Three of fifteen

COc1ccc(C(=O)COC(=O)/C=C(C)/C=C/C=C(C)\C=C\C2=C(C)CCCC2(C)C)cc1 [Compound 2, 2-(9-cis-retinoyloxy)-4'-methoxyacetophenone]
Signs of erythema or edema formation (Draize scale) (skin of rabbits; 0.5 ml topical, intact and abraded skin, 24 and 72 hours): no signs of erythema or edema formation are evident in any of the 12 test animals
Body weight change (skin of rabbits; beginning vs end of observation period, all 12 animals): All 12 animals exhibited a gain in body weight
Overt signs of toxicity (skin of rabbits; rabbit, in vivo): No overt signs of toxicity are evident
Facial improvement of dermatoheliosis [5, 7]: all show an improvement in their dermatoheliosis; also recorded: Two of the four patients show very significant improvement in facial smoothness, dryness and fine wrinkling; also recorded: Moderate improvement of these parameters are observed in the other two patients
Irritation during antiaging study [5, 7]: No significant irritation is experienced by any patient; also recorded: Very slight pinkness and a feeling of slight tightness in facial skin develops in two patients
Forearm improvement in surface texture, dryness and fine wrinkling ([5]; 0.1% cream, once daily, within two months): three show improvement in surface texture (smoothness), surface dryness and fine wrinkling within two months
Biopsy differences before and after treatment ([5]; dorsal right forearm, 4 mm punch): no significant differences in before treatment and after treatment biopsies
